According to US8927717B1, “Thiochromeno[2,3-c]quinolin-12-one derivatives, preparation method and application thereof” (National Defense Medical Center, priority 2014, dated 2015):

Key:
Assay type in all cases: cell-based
[1] = test system: MCF7; details: MCF7; 10^−5 molar
[2] = test system: RXF 393; details: RXF 393; 10^−5 molar
[3] = test system: MALME-3M; details: MALME-3M; 10^−5 molar
[4] = test system: HL-60(TB); details: HL-60(TB); 10^−5 molar
[5] = test system: SF-268; details: SF-268; 10^−5 molar
[6] = test system: NCI-H460; details: NCI-H460; 10^−5 molar
[7] = test system: SK-MEL-5; details: SK-MEL-5; 10^−5 molar
[8] = test system: HS 578T; details: HS 578T; 10^−5 molar
[9] = test system: SW-620; details: SW-620; 10^−5 molar
[10] = test system: TK-10; details: TK-10; 10^−5 molar
[11] = test system: U251; details: U251; 10^−5 molar
[12] = test system: ACHN; details: ACHN; 10^−5 molar
[13] = test system: LOX IMVI; details: LOX IMVI; 10^−5 molar
[14] = test system: 60 cancer cell lines; assay: NCI 60-cell screen, SRB, whole panel (mean, delta, range); details: 10^−5 molar; for Growth percent, Delta: delta over panel; for Growth percent, Mean: mean over panel; for Growth percent, Range: range over panel
[15] = test system: SN12C; details: SN12C; 10^−5 molar
[16] = test system: KM12; assay: cells; details: KM12; 10^−5 molar
[17] = test system: COLO 205; details: COLO 205; 10^−5 molar
[18] = test system: PC-3; details: PC-3; 10^−5 molar
[19] = test system: DU-145; details: DU-145; 10^−5 molar
[20] = test system: K-562; details: K-562; 10^−5 molar
[21] = test system: T-47D; details: T-47D; 10^−5 molar
[22] = test system: OVCAR-5; details: OVCAR-5; 10^−5 molar
[23] = test system: SF-295; details: SF-295; 10^−5 molar
[24] = test system: UO-31; details: UO-31; 10^−5 molar
[25] = test system: RPMI-8226; details: RPMI-8226; 10^−5 molar
[26] = test system: SK-MEL-28; details: SK-MEL-28; 10^−5 molar
[27] = test system: MDA-MB-231/ATCC; details: MDA-MB-231/ATCC; 10^−5 molar
[28] = test system: NCI/ADR-RES; details: NCI/ADR-RES; 10^−5 molar
[29] = test system: CCRF-CEM; details: CCRF-CEM; 10^−5 molar
[30] = test system: NCI-H23; details: NCI-H23; 10^−5 molar
[31] = test system: NCI-H522; details: NCI-H522; 10^−5 molar
[32] = test system: 786-0; details: 786-0; 10^−5 molar
[33] = test system: M14; details: M14; 10^−5 molar
[34] = test system: HT29; details: HT29; 10^−5 molar
[35] = test system: MDA-MB-486; details: MDA-MB-486; 10^−5 molar
[36] = test system: SNB-19; details: SNB-19; 10^−5 molar
[37] = test system: UACC-62; details: UACC-62; 10^−5 molar
[38] = test system: SNB-75; details: SNB-75; 10^−5 molar
[39] = test system: OVCAR-8; details: OVCAR-8; 10^−5 molar

For CN(C)CCCNc1nc2ccccc2c2c(=O)c3cc(Cl)ccc3sc12 [Compound N17, 10-Chloro-6-((3-(dimethylamino)propyl)amino)-12H-thiochromeno[2,3-c]quinolin-12-one], the Growth percent [1] was 51.20%, the Growth percent [2] was 76.32% and the Growth percent [3] was 100.91%. The Growth percent [4] was 77.32%, the Growth percent [5] was 87.67% and the Growth percent [6] was 88.06%. For the same molecule, the Growth percent [7] was 91.73%, the Growth percent [8] was 87.67% and the Growth percent [9] was 91.74%. For the same molecule, the Growth percent [10] was 108.89%, the Growth percent [11] was 84.19% and the Growth percent [12] was 86.20%. For the same molecule, the Growth percent [13] was 66.16%, the “Growth percent, Delta” value [14] was 44.56% and the “Growth percent, Mean” value [14] was 85.32%. For the same molecule, the “Growth percent, Range” value [14] was 68.13%, the Growth percent [15] was 83.63% and the Growth percent [16] was 97.75%. For the same molecule, the Growth percent [17] was 91.35%, the Growth percent [18] was 81.31% and the Growth percent [19] was 97.29%. For the same molecule, the Growth percent [20] was 47.53%, the Growth percent [21] was 79.82% and the Growth percent [22] was 106.26%. The Growth percent [23] was 95.14%, the Growth percent [24] was 72.62% and the Growth percent [25] was 78.66%. It also gave a Growth percent [26] of 99.63%, a Growth percent [27] of 73.39% and a Growth percent [28] of 96.94%. The Growth percent [29] was 69.06%, the Growth percent [30] was 100.25% and the Growth percent [31] was 98.76%. For the same molecule, the Growth percent [32] was 93.30%, the Growth percent [33] was 103.73% and the Growth percent [34] was 90.98%. The Growth percent [35] was 43.26%, the Growth percent [36] was 97.83% and the Growth percent [37] was 102.63%. It also gave a Growth percent [38] of 60.99% and a Growth percent [39] of 98.38%.

Molecule O=c1c2cc(Cl)ccc2sc2c(NCCN3CCOCC3)nc3ccccc3c12 [Compound N16, 10-Chloro-6-((2-morpholinoethyl)amino)-12H-thiochromeno[2,3-c]quinolin-12-one] has a Growth percent [1] of 51.69%, a Growth percent [2] of 93.21% and a Growth percent [3] of 78.79%. It also gave a Growth percent [4] of 104.97%, a Growth percent [5] of 79.49% and a Growth percent [6] of 100.49%. For the same molecule, the Growth percent [7] was 91.61%, the Growth percent [8] was 89.65% and the Growth percent [9] was 99.65%. It also gave a Growth percent [10] of 76.67%, a Growth percent [11] of 76.34% and a Growth percent [12] of 91.61%. The Growth percent [13] was 67.43%, the “Growth percent, Delta” value [14] was 62.71% and the “Growth percent, Mean” value [14] was 80.38%. The “Growth percent, Range” value [14] was 88.85%, the Growth percent [15] was 95.98% and the Growth percent [16] was 68.16%. The Growth percent [17] was 79.39%, the Growth percent [18] was 67.82% and the Growth percent [19] was 93.09%. For the same molecule, the Growth percent [20] was 17.67%, the Growth percent [21] was 47.63% and the Growth percent [22] was 68.98%. For the same molecule, the Growth percent [23] was 102.17%, the Growth percent [24] was 54.16% and the Growth percent [25] was 92.20%. The Growth percent [26] was 98.56%, the Growth percent [27] was 59.20% and the Growth percent [28] was 77.03%. For the same molecule, the Growth percent [29] was 82.21%, the Growth percent [30] was 83.07% and the Growth percent [31] was 76.66%. It also gave a Growth percent [32] of 83.16%, a Growth percent [33] of 99.59% and a Growth percent [34] of 43.13%. It also gave a Growth percent [35] of 74.34%, a Growth percent [36] of 90.44% and a Growth percent [37] of 94.58%. It also gave a Growth percent [38] of 60.74% and a Growth percent [39] of 92.43%.

Molecule O=c1c2cc(Cl)ccc2sc2c(NCc3ccc4c(c3)OCO4)nc3ccccc3c12 [Compound N27, 6-((Benzo[d][1,3]dioxol-5-ylmethyl)amino)-10-chloro-12H-thiochromeno[2,3-c]quinolin-12-one] has a Growth percent [1] of 43.53%, a Growth percent [2] of 74.20% and a Growth percent [3] of 81.64%. For the same molecule, the Growth percent [4] was 112.12%, the Growth percent [5] was 93.24% and the Growth percent [6] was 76.71%. The Growth percent [7] was 79.86%, the Growth percent [8] was 70.49% and the Growth percent [9] was 76.95%. It also gave a Growth percent [10] of 116.79%, a Growth percent [11] of 81.03% and a Growth percent [12] of 58.48%. For the same molecule, the Growth percent [13] was 78.69%, the “Growth percent, Delta” value [14] was 36.65% and the “Growth percent, Mean” value [14] was 81.18%. The “Growth percent, Range” value [14] was 73.26%, the Growth percent [15] was 85.53% and the Growth percent [16] was 87.96%. It also gave a Growth percent [17] of 87.63%, a Growth percent [18] of 78.54% and a Growth percent [19] of 72.44%. The Growth percent [20] was 80.37%, the Growth percent [21] was 74.41% and the Growth percent [22] was 84.38%. It also gave a Growth percent [23] of 94.39%, a Growth percent [24] of 80.98% and a Growth percent [25] of 96.35%. The Growth percent [26] was 88.24%, the Growth percent [27] was 54.65% and the Growth percent [28] was 91.11%. The Growth percent [29] was 88.86%, the Growth percent [30] was 79.93% and the Growth percent [31] was 78.43%. For the same molecule, the Growth percent [32] was 95.83%, the Growth percent [33] was 94.93% and the Growth percent [34] was 82.91%. The Growth percent [35] was 60.47%, the Growth percent [36] was 97.62% and the Growth percent [37] was 72.96%. For the same molecule, the Growth percent [38] was 57.14% and the Growth percent [39] was 79.45%.

With O=c1c2cc(Cl)ccc2sc2c(NCCc3ccccc3)nc3ccccc3c12 [Compound N30, 10-Chloro-6-(phenethylamino)-12H-thiochromeno[2,3-c]quinolin-12-one] the Growth percent [1] was 60.91%, the Growth percent [2] was 96.74% and the Growth percent [3] was 122.61%. For the same molecule, the Growth percent [4] was 105.68%, the Growth percent [5] was 101.32% and the Growth percent [6] was 95.11%. It also gave a Growth percent [7] of 89.49%, a Growth percent [8] of 87.62% and a Growth percent [9] of 93.45%. For the same molecule, the Growth percent [10] was 122.13%, the Growth percent [11] was 96.78% and the Growth percent [12] was 90.85%. For the same molecule, the Growth percent [13] was 89.03%, the “Growth percent, Delta” value [14] was 32.31% and the “Growth percent, Mean” value [14] was 93.22%. For the same molecule, the “Growth percent, Range” value [14] was 61.70%, the Growth percent [15] was 86.54% and the Growth percent [16] was 90.99%. It also gave a Growth percent [17] of 100.02%, a Growth percent [18] of 87.25% and a Growth percent [19] of 100.17%. For the same molecule, the Growth percent [20] was 82.82%, the Growth percent [21] was 71.96% and the Growth percent [22] was 102.03%. The Growth percent [23] was 95.46%, the Growth percent [24] was 75.82% and the Growth percent [25] was 77.36%. The Growth percent [26] was 98.94%, the Growth percent [27] was 79.55% and the Growth percent [28] was 96.51%. It also gave a Growth percent [29] of 114.29%, a Growth percent [30] of 89.89% and a Growth percent [31] of 93.93%. The Growth percent [32] was 108.00%, the Growth percent [33] was 97.97% and the Growth percent [34] was 109.15%. It also gave a Growth percent [35] of 63.11%, a Growth percent [36] of 100.6% and a Growth percent [37] of 74.67%. For the same molecule, the Growth percent [38] was 68.76% and the Growth percent [39] was 95.61%.
